We go through 2 molecules from paper PMC2901518 (British Journal of Pharmacology, 2010).

Where two headings read alike, the source gives them in different places.

Experiment [1] concerns the target T1, rat Y1 receptor (association with β-arrestin2) (Rattus norvegicus, UniProt P21555).
T1 sequence (P21555 2-382): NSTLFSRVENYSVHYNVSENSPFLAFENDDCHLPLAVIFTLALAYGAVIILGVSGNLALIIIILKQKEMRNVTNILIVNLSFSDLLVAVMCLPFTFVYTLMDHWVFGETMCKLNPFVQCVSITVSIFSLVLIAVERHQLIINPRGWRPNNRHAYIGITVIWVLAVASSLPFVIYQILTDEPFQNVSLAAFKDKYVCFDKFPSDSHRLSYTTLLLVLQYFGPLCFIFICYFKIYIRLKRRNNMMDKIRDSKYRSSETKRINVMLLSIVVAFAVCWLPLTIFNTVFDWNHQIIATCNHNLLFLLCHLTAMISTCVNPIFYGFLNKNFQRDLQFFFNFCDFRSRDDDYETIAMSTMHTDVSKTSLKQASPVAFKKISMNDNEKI
It is filed as cell-based.

In the next experiment the target is Y1 receptor (Y1–YFP) (Rattus norvegicus, UniProt P21555). It is filed as cell-based.
Setting [2] is: 30 min pre-incubation, NPY 60 min.
The mark [3] stands for this setting: example triplicate experiment, Figure 6.

Chain of Y1 receptor (Y1–YFP) (P21555 whole entry): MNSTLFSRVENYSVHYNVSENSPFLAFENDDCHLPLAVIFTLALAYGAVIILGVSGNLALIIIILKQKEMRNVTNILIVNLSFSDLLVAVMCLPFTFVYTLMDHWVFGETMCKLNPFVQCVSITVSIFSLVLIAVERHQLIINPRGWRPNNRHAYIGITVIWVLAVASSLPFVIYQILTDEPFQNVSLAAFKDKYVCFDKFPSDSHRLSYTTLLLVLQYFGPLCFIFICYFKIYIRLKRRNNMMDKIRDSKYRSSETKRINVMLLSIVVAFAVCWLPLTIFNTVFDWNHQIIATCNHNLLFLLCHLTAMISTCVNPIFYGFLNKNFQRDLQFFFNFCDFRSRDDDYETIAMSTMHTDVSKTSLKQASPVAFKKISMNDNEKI

On to `N=C(N)NCCC[C@@H](NC(=O)C(c1ccccc1)c1ccccc1)C(=O)NCc1ccc(O)cc1` [BIBP3226, (R)-N2-(diphenylacetyl)-N-[(4-hydroxyphenyl)methyl]-argininamide], for which, in experiment [1], the “Schild slope, example experiment” value turned out to be 1.1; the “Schild slope, pooled” value is reported as 1.1 ± 0.1; the “effect of antagonist alone on Y1/βarr2 BiFC, % of 1 µM NPY response” value is recorded as −4.5 ± 10.0%.
As to “homodimeric Ile-Glu-Pro-Dpr-Tyr-Arg-Leu-Arg-Tyr-CONH2 [GR231118]”, the “agonist activity in Y1–YFP endocytosis assay” value at Y1 receptor (Y1–YFP) was “inactive”. Also, in experiment [1] (setting [2]), the “Schild slope, pooled” value is 1.5 ± 0.2 and the “pA2 (Schild plot), pooled” value came out at 8.6 ± 0.2. The “agonist activity for stimulation of Y1/βarr2 BiFC” value in experiment [1] (1 h incubation) was “inactive”. For the same molecule, in experiment [1] (setting [3]), the “Schild slope, example experiment” value is 1.9 and the “pA2 (Schild plot), example experiment” value is given as 8.3.
